According to US9676756B2 (PORTOLA PHARMACEUTICALS, INC., priority 2012, dated 2017):

Columns and labels:
Type in all cases: biochemical
[1] = biological target: T1, full length active recombinant SYK enzyme (Homo sapiens, UniProt P43405); assay: SYK tyrosine phosphorylation activity, LANCE TR-FRET kinase assay; conditions: 1 nM SYK, 100 μM ATP, 1 hour at room temperature
T1 construct: full length active recombinant SYK enzyme (Millipore, CA); purchased Millipore
Protocol: Potency of candidate molecules for inhibiting Syk tyrosine phosphorylation activity is assessed by measuring the ability of a test compound to inhibit Syk-mediated tyrosine phosphorylation of a Syk-specific substrate.
SYK tyrosine phosphorylation activity is measured using the LANCE™ Technology developed by Perkin Elmer Life and Analytical Sciences (Boston, Mass.). LANCE™ refers to homogeneous time resolved fluorometry applications using techniques such as time-resolved fluorescence resonance energy transfer assay (TR-FRET) (see generally for procedures in Perkin Elmer Application Note—How to Optimize a Tyrosine Kinase Assay Using Time Resolved Fluorescence-Based LANCE Detection, wwww.perkinelmer.com/lifesciences). The assay principle involves detection of a phosphorylated substrate using energy transfer from a phosphospecific europium-labeled antibody to streptavidin-allophycocyanin as an acceptor.
To test the ability of candidate molecules to inhibit SYK tyrosine phosphorylation activity, molecules are reconstituted in 30% DMSO and serially diluted 1:3 with the final dilution containing DMSO in the absence of the candidate molecule. The final DMSO concentration in the assay is 3%. Kinase assays are performed as a two part reaction. The first reaction is a kinase reaction that comprises a candidate molecule, full length active recombinant SYK enzyme (Millipore, CA) and biotin-labeled SYK-specific substrate biotin-[…]-OH. The second reaction involves termination of the kinase reaction and the simultaneous addition of the detection reagents-europium-labeled anti-phosphotyrosine reagent (Eu-W1024-PY100, Perkin Elmer, Boston, Mass.) and Streptavidin-Allophycocyanin detection reagent (SA-APC, Prozyme, CA). The kinase reaction is performed in a black U-bottom 96-well microtitre plate. The final reaction volume is 50 μL and contains a final concentration of 1 nM active SYK enzyme, 550 nM SYK-substrate, and 100 μM ATP diluted in a buffer containing 50 mM Tris pH 7.5, 5 mM MgCl2, and 1 mM DTT. The reaction is allowed to proceed for 1 hour at room temperature. The stop buffer contains 100 mM Tris pH 7.5, 300 mM NaCl2, 20 mM EDTA, 0.02% Brij35, and 0.5% BSA. The detection reagents are added to the reaction mixture at the following dilutions—1:500 for Eu-W1024-PY100 and 1:250 for SA-APC. The kinase reaction is terminated by the addition of 50 μL stop buffer containing the detection reagents. The detection is allowed to proceed for 1 hr at room temperature. Detection of the phosphorolated substrate in the absence and presence of inhibitors is measured in the TR-FRET instrument, Analyst HT (Molecular Probes, Sunnyvale, Calif.) and the condition for measurements are set up using CriterionHost Release 2.0 (Molecular Probes, Sunnyvale, Calif.). The settings used are a follows: excitation 360 nm, emission 665-7.5 nm, beam splitter 350 nm 50/50, flash 100 pulses, delay 60 us, integration 400 us, z-height 2 mm. Inhibition of SYK-tyrosine kinase activity is calculated as the maximum response observed in the presence of inhibitor, compared to that in the absence of inhibitor. IC50s are derived by non-linear regression analysis.

JAK1 = biological target: T2, JAK1 (Homo sapiens, UniProt P23458); assay: JAK tyrosine phosphorylation activity, Z'-LYTE FRET kinase assay; conditions: catalytic domain recombinant kinase, Tyr6 peptide; for IC50: read-out: JAK1 IC50 % Inhibition
T2 construct: 5 μl of catalytic domain recombinant Kinase enzyme+Tyr peptide substrate (Invitrogen, CA); purchased Invitrogen
T2 sequence (P23458 875-1153 limits assumed): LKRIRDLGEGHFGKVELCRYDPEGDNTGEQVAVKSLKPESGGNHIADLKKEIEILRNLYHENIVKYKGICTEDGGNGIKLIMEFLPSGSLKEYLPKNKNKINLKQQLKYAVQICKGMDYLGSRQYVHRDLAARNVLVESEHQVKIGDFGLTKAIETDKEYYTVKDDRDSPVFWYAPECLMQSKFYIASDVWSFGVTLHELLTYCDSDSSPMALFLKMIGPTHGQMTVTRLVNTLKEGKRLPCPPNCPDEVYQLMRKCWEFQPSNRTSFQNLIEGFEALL
Protocol: (§1) JAK and SYK tyrosine phosphorylation activity is measured using the Z'-LYTE™ Technology developed by Invitrogen Corporation (Carlsbad, Calif.). For JAK1, JAK2 and JAK3 the Z'-LYTE™ Kinase Assay Kit-Tyr6 Peptide (part number PV4122) was used. The Z'-LYTE™ biochemical assay employs a fluorescence resonance energy transfer (FRET) coupled-enzyme format and is based on the differential sensitivity of phosphorylated and non-phosphorylated peptides to proteolitic cleavage. The assay uses a synthetic peptide substrate that is labelled with a donor fluorophore (coumarin) and an acceptor fluorophore (fluorescein) that make up a FRET pair. In the primary reaction (the Kinase Reaction), the kinase transfers the γ-phosphate of ATP to a single tyrosine residue on the substrate, while the presence of a kinase inhibitor in the primary reaction suppresses phosphorylation. In the secondary reaction (the Development Reaction), a site-specific protease (the Development Reagent) is added. The development buffer quenches the Kinase Reaction, while the protease recognizes and cleaves non-phosphorylated Z'-LYTE™ peptide substrate. Cleavage disrupts FRET between the donor and acceptor fluorophores on the non-phosphorylated substrate, while uncleaved, phosphorylated substrate maintains FRET.
(§2) To test the ability of candidate molecules to inhibit JAK tyrosine phosphorylation activity, molecules are reconstituted in 100% DMSO and serially diluted 1:10 in polypropylene v-bottom microtiter plates. The candidate molecules are then diluted 1:25 into kinase buffer and 2.5 μl transferred into duplicate wells of a 384 well low volume black microtiter assay plate (Corning, USA). The final DMSO concentration in the assay is 1%. The kinase reaction contains 2.5 μl of a candidate molecule, 5 μl of catalytic domain recombinant Kinase enzyme+Tyr peptide substrate (Invitrogen, CA) and 2.5 μl ATP (Invitrogen, CA). The kinase reaction is allowed to precede for 1 hour at room temperature. The protease reaction is initiated by the addition of 5 μl Development Reagent (Invitrogen, CA). After 1 hour incubation at room temperature the fluorescence is measured using a FlexStation plate reader (Molecular Devices, Sunnyvale, Calif.). The reader settings used are as follows: Fluorescence mode, endpoint, top read, excitation 400 nm, emission 445 nm and 520 nm. Auto Cutoff 435 nm and 515 nm, PMT sensitivity high, 6 reads per well. Inhibition of JAK activity is calculated as the percent phosphorylation of substrate in the presence of inhibitor compared to the percent phosphorylation of substrate in the absence of inhibitor. IC50's were derived using Xlfit 4.3 (IDBS, UK), 4 parameter logistic model 205: Y=(A+((B−A)/(1+((C/x)^D)))).

JAK2 = biological target: T3, JAK2 (Homo sapiens, UniProt O60674); assay: as above; conditions: catalytic domain recombinant kinase, Tyr6 peptide
T3 construct: 5 μl of catalytic domain recombinant Kinase enzyme+Tyr peptide substrate (Invitrogen, CA); purchased Invitrogen
T3 sequence (O60674 849-1124 limits assumed): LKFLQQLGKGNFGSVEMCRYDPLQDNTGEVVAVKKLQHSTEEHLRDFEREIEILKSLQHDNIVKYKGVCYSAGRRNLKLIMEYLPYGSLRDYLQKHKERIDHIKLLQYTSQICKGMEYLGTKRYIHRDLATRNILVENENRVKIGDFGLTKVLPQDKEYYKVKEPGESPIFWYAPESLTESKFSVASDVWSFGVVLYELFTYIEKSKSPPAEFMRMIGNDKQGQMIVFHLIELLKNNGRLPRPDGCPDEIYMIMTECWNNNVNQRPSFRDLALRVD
Protocol: as §1, §2

JAK3 = biological target: T4, JAK3 (Homo sapiens, UniProt P52333); assay: as above; conditions: catalytic domain recombinant kinase, Tyr6 peptide
T4 construct: 5 μl of catalytic domain recombinant Kinase enzyme+Tyr peptide substrate (Invitrogen, CA); purchased Invitrogen
T4 sequence (P52333 822-1111 limits assumed): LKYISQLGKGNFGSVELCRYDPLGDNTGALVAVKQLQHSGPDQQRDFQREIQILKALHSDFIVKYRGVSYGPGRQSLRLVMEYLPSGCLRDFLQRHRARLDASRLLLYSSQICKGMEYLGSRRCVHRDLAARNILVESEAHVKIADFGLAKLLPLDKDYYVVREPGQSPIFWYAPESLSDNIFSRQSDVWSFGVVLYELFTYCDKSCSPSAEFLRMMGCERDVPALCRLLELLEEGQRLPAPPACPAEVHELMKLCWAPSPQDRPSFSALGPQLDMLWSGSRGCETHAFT
Protocol: as §1, §2

IC50 [1] | JAK1 IC50 potency class (JAK1) | JAK2 IC50 potency class (JAK2) | JAK3 IC50 potency class (JAK3) | IC50 (JAK1) [nM] | SMILES
++ (1.0 uM<IC50<0.10 uM) | +++ (0.10 uM<IC50<0.01 uM) | ++++ (0.01 uM<IC50<0.001 uM) | ++++ (0.01 uM<IC50<0.001 uM) | – | CS(=O)(=O)N1CCN(c2ccc(Nc3ncc(C(N)=O)c(NC4CC4)n3)cc2C#N)CC1 [Compound 47, 2-((3-cyano-4-(4-(methylsulfonyl)piperazin-1-yl)phenyl)amino)-4-(cyclopropylamino)pyrimidine-5-carboxamide]
++ (1.0 uM<IC50<0.10 uM) | ++ (1.0 uM<IC50<0.10 uM) | +++ (0.10 uM<IC50<0.01 uM) | ++++ (0.01 uM<IC50<0.001 uM) | – | CCS(=O)(=O)N1CCN(c2ccc(Nc3ncc(C(N)=O)c(NC4CC4)n3)cc2C#N)CC1 [Compound 48, 2-((3-cyano-4-(4-(ethylsulfonyl)piperazin-1-yl)phenyl)amino)-4-(cyclopropylamino)pyrimidine-5-carboxamide]
++ (1.0 uM<IC50<0.10 uM) | ++ (1.0 uM<IC50<0.10 uM) | +++ (0.10 uM<IC50<0.01 uM) | +++ (0.10 uM<IC50<0.01 uM) | – | CS(=O)(=O)N1CCN(c2c(F)cc(Nc3ncc(C(N)=O)c(NC4CC4)n3)cc2F)CC1 [Compound 49, 4-(cyclopropylamino)-2-((3,5-difluoro-4-(4-(methylsulfonyl)piperazin-1-yl)phenyl)amino)pyrimidine-5-carboxamide]
++ (1.0 uM<IC50<0.10 uM) | – | ++ (1.0 uM<IC50<0.10 uM) | ++ (1.0 uM<IC50<0.10 uM) | > 1000 | CCS(=O)(=O)N1CCN(c2c(F)cc(Nc3ncc(C(N)=O)c(NC4CC4)n3)cc2F)CC1 [Compound 50, 4-(cyclopropylamino)-2-((4-(4-(ethylsulfonyl)piperazin-1-yl)-3,5-difluorophenyl)amino)pyrimidine-5-carboxamide]
+++ (0.10 uM<IC50<0.01 uM) | +++ (0.10 uM<IC50<0.01 uM) | ++++ (0.01 uM<IC50<0.001 uM) | ++++ (0.01 uM<IC50<0.001 uM) | – | CN(C)C(=O)C1CCN(c2ccc(Nc3ncc(C(N)=O)c(NC4CC4)n3)cc2F)CC1 [Compound 52, 4-(cyclopropylamino)-2-((4-(4-(dimethylcarbamoyl)piperidin-1-yl)-3-fluorophenyl)amino)pyrimidine-5-carboxamide]
+++ (0.10 uM<IC50<0.01 uM) | +++ (0.10 uM<IC50<0.01 uM) | ++++ (0.01 uM<IC50<0.001 uM) | ++++ (0.01 uM<IC50<0.001 uM) | – | CN(C)C(=O)C1CCN(c2ccc(Nc3ncc(C(N)=O)c(NC4CC4)n3)cc2Cl)CC1 [Compound 53, 2-((3-chloro-4-(4-(dimethylcarbamoyl)piperidin-1-yl)phenyl)amino)-4-(cyclopropylamino)pyrimidine-5-carboxamide]
+++ (0.10 uM<IC50<0.01 uM) | +++ (0.10 uM<IC50<0.01 uM) | ++++ (0.01 uM<IC50<0.001 uM) | ++++ (0.01 uM<IC50<0.001 uM) | – | NC(=O)c1cnc(Nc2ccc(N3CCOCC3)c(F)c2)nc1NC1CC1 [Compound 54, 4-(cyclopropylamino)-2-((3-fluoro-4-morpholinophenyl)amino)pyrimidine-5-carboxamide]

More lines, now with the values behind:

SMILES | IC50 [1] | JAK1 IC50 potency class (JAK1) | JAK2 IC50 potency class (JAK2) | JAK3 IC50 potency class (JAK3) | IC50 (JAK1) [nM]
COc1cc(Nc2ncc(C(N)=O)c(NC3CC3)n2)ccc1N1CCC(C(=O)N(C)C)CC1 [Compound 51, 4-(cyclopropylamino)-2-((4-(4-(dimethylcarbamoyl)piperidin-1-yl)-3-methoxyphenyl)amino)pyrimidine-5-carboxamide] | ++ (1.0 uM<IC50<0.10 uM) | +++ (0.10 uM<IC50<0.01 uM) | ++++ (0.01 uM<IC50<0.001 uM) | ++++ (0.01 uM<IC50<0.001 uM) | –
NC(=O)c1cnc(Nc2ccc(C3CCNCC3)cc2)nc1NC1CC1 [Compound 55, 4-(cyclopropylamino)-2-((4-(piperidin-4-yl)phenyl)amino)pyrimidine-5-carboxamide] | +++ (0.10 uM<IC50<0.01 uM) | +++ (0.10 uM<IC50<0.01 uM) | ++++ (0.01 uM<IC50<0.001 uM) | ++++ (0.01 uM<IC50<0.001 uM) | –
NC(=O)c1cnc(Nc2ccc(C3=CCNCC3)cc2)nc1NC1CC1 [Compound 56, 4-(cyclopropylamino)-2-((4-(1,2,3,6-tetrahydropyridin-4-yl)phenyl)amino)pyrimidine-5-carboxamide] | +++ (0.10 uM<IC50<0.01 uM) | +++ (0.10 uM<IC50<0.01 uM) | +++ (0.10 uM<IC50<0.01 uM) | ++++ (0.01 uM<IC50<0.001 uM) | –
CCS(=O)(=O)N1CC=C(c2ccc(Nc3ncc(C(N)=O)c(NC4CC4)n3)cc2)CC1 [Compound 57, 4-(cyclopropylamino)-2-((4-(1-(ethylsulfonyl)-1,2,3,6-tetrahydropyridin-4-yl)phenyl)amino)pyrimidine-5-carboxamide] | +++ (0.10 uM<IC50<0.01 uM) | +++ (0.10 uM<IC50<0.01 uM) | +++ (0.10 uM<IC50<0.01 uM) | ++++ (0.01 uM<IC50<0.001 uM) | –
CC(C)c1ccc(Nc2ncc(C(N)=O)c(NC3CC3)n2)cc1 [Compound 59, 4-(cyclopropylamino)-2-((4-isopropylphenyl)amino)pyrimidine-5-carboxamide] | +++ (0.10 uM<IC50<0.01 uM) | ++ (1.0 uM<IC50<0.10 uM) | ++ (1.0 uM<IC50<0.10 uM) | +++ (0.10 uM<IC50<0.01 uM) | –
NC(=O)c1cnc(Nc2ccc(C3CCNCC3)cc2)cc1NC1CC1 [Compound 63, 4-(cyclopropylamino)-6-((4-(piperidin-4-yl)phenyl)amino)nicotinamide] | ++ (1.0 uM<IC50<0.10 uM) | – | ++ (1.0 uM<IC50<0.10 uM) | ++ (1.0 uM<IC50<0.10 uM) | > 1000
